Laboratory results taken from patent US12263163B2 (Kronos Bio, Inc., priority 2013, dated 2025).

System: human hepatocytes
Assay: Human Hepatocyte Stability Assay (predicted hepatocyte clearance)
Format: in vitro ADME
Conditions: comparison table with known Syk inhibitors, head prints (units)
Protocol: The human […] stability of the compounds as predicted hepatocyte clearance in L/hr/kg was assessed. Compounds to be tested were diluted to 200 μM (4 μl of 10 mM DMSO stock into 196 μl ACN:H2O (50:50). Propranolol was used as a positive control, and buffer only without hepatocytes as 0% control. These were further diluted 4 μl with 891 μl KHB buffer (InVitroGRO catalog number Z99074) to provide 2× dosing solution. To each well of 24 well plate, 250 μl of the 2× dosing solution was added to each well with 250 μl of hepatocytes cells (1×10^6 viable cells/ml per well) or KHB for control samples to achieve a final compound concentration of 1 μM during incubation. The final solvent concentration was 0.01% DMSO and 0.25% ACN. The culture plate was placed on a rocker and incubated at 37° C., 5% CO2. Samples were collected at time 0, 1, 3, and 6 hours. The loss of parent compound was determined using LC-MS methods against a standard curve.

Structure (SMILES) | Hheps CL [mL/min/kg]
Nc1cncc(-c2cn3ccnc3c(Nc3ccc(N4CCN(C5COC5)CC4)cc3)n2)n1 [Ex.-2, 6-(6-aminopyrazin-2-yl)-N-(4-(4-(oxetan-3-yl)piperazin-1-yl)phenyl)imidazo[1,2-a]pyrazin-8-amine] | 0.917
COc1ccc(Nc2nc(-c3ccc(N)nc3)cn3ccnc23)cc1OC [6-(6-aminopyridin-3-yl)-N-(3,4-dimethoxyphenyl)imidazo[1,2-a]pyrazin-8-amine, reference compound] | 15
Nc1cncc(-c2cn3ccnc3c(Nc3ccc(N4CCN(C5COC5)CC4)c(OCCO)c3)n2)n1 [Ex.-5, 2-(5-((6-(6-aminopyrazin-2-yl)imidazo[1,2-a]pyrazin-8-yl)amino)-2-(4-(oxetan-3-yl)piperazin-1-yl)phenoxy)ethanol] | 1.2
Cc1ncc(-c2cn3ccnc3c(Nc3ccc(N4CCN(C5COC5)CC4)cc3)n2)nc1N [Ex.-1, 6-(6-amino-5-methylpyrazin-2-yl)-N-(4-(4-(oxetan-3-yl)piperazin-1-yl)phenyl)imidazo[1,2-a]pyrazin-8-amine] | 2
COc1ccc(Nc2nc(-c3cccc(N)c3)cn3ccnc23)cc1OC [6-(3-aminophenyl)-N-(3,4-dimethoxyphenyl)imidazo[1,2-a]pyrazin-8-amine, reference compound] | 4

The next lines start with the values.

Hheps CL [mL/min/kg] | Structure (SMILES)
1.5 | Nc1cncc(-c2cn3ccnc3c(Nc3ccc(N4CCO[C@@H](CO)C4)cc3)n2)n1 [Ex.-3, (R)-(4-(4-((6-(6-aminopyrazin-2-yl)imidazo[1,2-a]pyrazin-8-yl)amino)phenyl)morpholin-2-yl)methanol]
1.3 | Nc1cncc(-c2cn3ccnc3c(Nc3ccc(N4CCN(CC(CO)CO)CC4)cc3)n2)n1 [Ex.-6, 2-((4-(4-((6-(6-aminopyrazin-2-yl)imidazo[1,2-a]pyrazin-8-yl)amino)phenyl)piperazin-1-yl)methyl)propane-1,3-diol]
11.3 | Nc1cncc(-c2cn3ccnc3c(Nc3ccc(N4CCOCC4)cc3)n2)c1 [6-(5-aminopyridin-3-yl)-N-(4-morpholinophenyl)imidazo[1,2-a]pyrazin-8-amine, reference compound]
1.3 | Cc1c(-c2cncc(N)n2)nc(Nc2ccc(N3CCN(C4COC4)CC3)cc2)c2nccn12 [Ex.-4, 6-(6-aminopyrazin-2-yl)-5-methyl-N-(4-(4-(oxetan-3-yl)piperazin-1-yl)phenyl)imidazo[1,2-a]pyrazin-8-amine]
13.3 | Cc1ncc(-c2cn3ccnc3c(Nc3ccc(N4CCOCC4)cc3)n2)cc1N [6-(5-amino-6-methylpyridin-3-yl)-N-(4-morpholinophenyl)imidazo[1,2-a]pyrazin-8-amine, reference compound]
0.83 | Cc1ncc(-c2cn3ccnc3c(Nc3ccc(N4CCN(C5COC5)CC4)c(OCCO)c3)n2)nc1N [Ex.-7, 2-(5-((6-(6-amino-5-methylpyrazin-2-yl)imidazo[1,2-a]pyrazin-8-yl)amino)-2-(4-(oxetan-3-yl)piperazin-1-yl)phenoxy)ethanol]
